Data on four compounds can be found in patent US20190134000A1, “COMPOUNDS TO PROMOTE NORMAL PROCESSING OF APP” (Buck Institute for Research on Aging, priority 2016, published 2019).

For orientation: inhibition means the percentage by which the read-out fell short of the control. In general, solubility refers to how much of the substance goes into solution per volume. Low values mean little dissolved substance, high ones much dissolved substance. The microsomal CLint is the rate of metabolic loss divided by the concentration. A word on the half-life: it is the time in which the quantity being followed falls by half. Low readings indicate rapid decline, high ones slow decline. Broadly, the fraction unbound is free concentration divided by total concentration.

Structures are written as SMILES. ≈ marks a conversion by molar mass, not a printed value. Entries after “also recorded” stand apart in the source; their conditions may differ. Read-outs that look alike come from different tables or passages of the source.

The test system of one data set is sAPPα in SH-SY5Y cells. In words: Primary screen, effect on sAPPα in SH-SY5Y cells (AlphaLISA). It counts as cell-based, human. The text has this: (§1) Compound C41 was initially identified by screening a library of compounds in a series of steps. First compounds were screened in a primary screen to determine the effect on sAPPα in SH-SYSY cells (see, e.g., FIG. 4). Compounds that elicited an increase in sAPPα of at least 10% were subjected to a secondary screen in CHO-7W cells for their effect on sAPPα and Aβ (see, e.g., FIG. 5).
In general terms: In Alpha technology, singlet oxygen from a donor bead excites a nearby acceptor bead.

A further data set concerns the target CYP2C19 (Homo sapiens, UniProt P33261). The experiment in a line: CYP inhibition screen CYP2C19. It is filed as in vitro ADME. As to conditions: human, read-out: CYP2C19 inhibition.
The next data set deals with T1, CYP1A2 (Homo sapiens, UniProt P05177).
T1 sequence (P05177 1-516): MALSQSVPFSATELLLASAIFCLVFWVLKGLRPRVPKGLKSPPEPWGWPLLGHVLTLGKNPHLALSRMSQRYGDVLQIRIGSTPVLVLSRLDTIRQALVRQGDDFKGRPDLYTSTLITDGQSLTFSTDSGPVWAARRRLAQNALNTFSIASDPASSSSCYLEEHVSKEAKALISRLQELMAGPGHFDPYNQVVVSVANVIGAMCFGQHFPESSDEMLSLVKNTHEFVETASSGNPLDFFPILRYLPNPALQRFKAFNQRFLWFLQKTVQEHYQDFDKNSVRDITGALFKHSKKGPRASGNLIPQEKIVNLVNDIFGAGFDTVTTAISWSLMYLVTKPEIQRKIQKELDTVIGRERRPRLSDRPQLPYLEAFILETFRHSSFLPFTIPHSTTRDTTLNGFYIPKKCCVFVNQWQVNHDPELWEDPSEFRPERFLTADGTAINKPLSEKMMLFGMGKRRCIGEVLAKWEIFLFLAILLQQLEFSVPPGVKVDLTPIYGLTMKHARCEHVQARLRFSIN
The experiment in a line: CYP inhibition screen CYP1A2. As to conditions: human, read-out: CYP1A2 inhibition. It counts as in vitro ADME.

The next data set relates to AD mouse model. In words: Synaptic load, synaptophysin labeling of hippocampus. It is filed as in vivo. As for the experimental part:
FIG. 16 illustrates mechanistic confirmation studies for determination of synaptic load.
Mechanistic confirmation studies for determination of synaptic load were performed using antibody-labeling of synaptophysin with a green fluorescent tag. […] The improvements in NLR and NOR may be correlated to the restoration of synaptic load, increases in sAPPα or the sAPPα/sAPPβ ratio; increases in the sAPPα/Aβ1-42 ratio; decreases in the p-tau/tau ratio, and/or decreases in APPneo (c-terminal cleavage).

Data set [1] relates to sAPPα, Aβ1-42 in CHO-7W cells. In words: Secondary screen, sAPPα and Aβ in CHO-7W cells. It counts as cell-based.
Source text: as §1

Another data set concerns AD model mouse. The experiment in a line: In vivo study of C41 and F03 in an AD model mouse. The text has this: Panel A: Novel object preference; Panel B: Novel location preference; Panel C: sAPPα.
Panel A: sAPPβ; Panel B: the sAPPα/sAPPβ ratio.
Compounds meeting the initial screening criteria were then subjected to in vivo testing.

Another data set concerns the target APP (Homo sapiens, UniProt P05067). The experiment in a line: Target binding APP.
The target in another data set is T2, 5-HT3 (Homo sapiens, UniProt P46098).
T2 sequence (P46098 24-478): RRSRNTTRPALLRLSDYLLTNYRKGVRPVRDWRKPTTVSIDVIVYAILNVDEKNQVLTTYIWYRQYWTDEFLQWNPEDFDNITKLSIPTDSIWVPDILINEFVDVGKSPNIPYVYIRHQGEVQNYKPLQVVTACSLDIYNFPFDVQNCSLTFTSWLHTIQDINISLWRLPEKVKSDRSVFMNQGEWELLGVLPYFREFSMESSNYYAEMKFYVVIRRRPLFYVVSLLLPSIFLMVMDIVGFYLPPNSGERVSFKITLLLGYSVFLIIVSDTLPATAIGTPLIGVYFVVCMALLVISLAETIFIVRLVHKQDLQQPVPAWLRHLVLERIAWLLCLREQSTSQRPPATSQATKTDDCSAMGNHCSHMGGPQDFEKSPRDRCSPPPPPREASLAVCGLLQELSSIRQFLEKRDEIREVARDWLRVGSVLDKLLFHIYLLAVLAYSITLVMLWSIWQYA
The experiment in a line: Target binding 5-HT3. As to conditions: target binding.

A further data set addresses CYP2D6 (Homo sapiens, UniProt P10635). The experiment in a line: CYP inhibition screen CYP2D6. It is filed as in vitro ADME. Conditions: human, read-out: CYP2D6 inhibition.
The conditions of data set [2]: reported; cited from earlier work.
The next data set addresses CYP3A4 (Homo sapiens, UniProt P08684). In words: CYP inhibition screen CYP3A4. It counts as in vitro ADME. As to conditions: human.
Another data set addresses CYP2C9 (Homo sapiens, UniProt P11712). In words: CYP inhibition screen CYP2C9. It counts as in vitro ADME. Conditions: human, read-out: CYP2C9 inhibition.
The target in the next data set is α7 (Homo sapiens, UniProt P36544). In words: Target binding α7.
Another data set is described as follows: in vitro. The procedure: The second batch of C41 was tested for plasma protein binding, ADME-tox screening (microsomal intrinsic clearance), and ADME-tox screening (CYP inhibition screen). PK in rats was determined to determine a dose of non-GLP Pharm-Tox screening. Additionally, acute toxicity in rats (pre-subchronic toxicity) and non-GLP subchronic toxicity was determined.

Setting [3] is: midazolam, read-out: CYP3A4 midazolam inhibition.
The mark [4] stands for this setting: testosterone, read-out: CYP3A4 testosterone inhibition.
Where [5] appears, read: dog, microsomes, NADPH-Dependent CLint.
[6] abbreviates: dog, microsomes, NADPH-Free CLint.
The mark [7] stands for this setting: rat, microsomes, NADPH-Dependent CLint.
Setting [8] is: rat, microsomes, NADPH-Free CLint.

Sequence of CYP3A4 (P08684 whole entry): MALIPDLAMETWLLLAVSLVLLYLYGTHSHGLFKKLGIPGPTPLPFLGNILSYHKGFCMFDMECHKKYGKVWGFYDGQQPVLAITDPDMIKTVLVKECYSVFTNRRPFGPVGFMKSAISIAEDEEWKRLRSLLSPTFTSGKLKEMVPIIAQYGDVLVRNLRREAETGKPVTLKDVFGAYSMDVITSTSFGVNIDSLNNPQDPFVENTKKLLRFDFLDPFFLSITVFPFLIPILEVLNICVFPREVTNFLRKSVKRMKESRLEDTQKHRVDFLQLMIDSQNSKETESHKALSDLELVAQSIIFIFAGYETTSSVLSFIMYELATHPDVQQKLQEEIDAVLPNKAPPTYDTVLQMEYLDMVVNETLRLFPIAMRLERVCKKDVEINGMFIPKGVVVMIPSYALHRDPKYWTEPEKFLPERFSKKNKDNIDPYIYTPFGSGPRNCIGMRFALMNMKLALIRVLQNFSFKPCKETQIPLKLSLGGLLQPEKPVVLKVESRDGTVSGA
Sequence of CYP2C9 (P11712 whole entry): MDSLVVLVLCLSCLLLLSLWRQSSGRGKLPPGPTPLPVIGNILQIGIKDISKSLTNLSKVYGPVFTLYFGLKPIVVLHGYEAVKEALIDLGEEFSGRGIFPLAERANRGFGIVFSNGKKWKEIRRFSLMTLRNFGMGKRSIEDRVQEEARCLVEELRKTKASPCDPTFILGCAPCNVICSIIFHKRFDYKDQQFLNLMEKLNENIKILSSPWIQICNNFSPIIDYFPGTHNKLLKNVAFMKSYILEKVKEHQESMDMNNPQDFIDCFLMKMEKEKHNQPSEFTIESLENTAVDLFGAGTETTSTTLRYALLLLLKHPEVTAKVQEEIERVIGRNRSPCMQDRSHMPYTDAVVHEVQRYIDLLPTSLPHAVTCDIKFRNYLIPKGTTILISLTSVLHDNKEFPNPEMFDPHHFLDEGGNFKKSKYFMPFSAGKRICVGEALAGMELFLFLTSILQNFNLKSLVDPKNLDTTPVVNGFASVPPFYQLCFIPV
Sequence of CYP2C19 (P33261 whole entry): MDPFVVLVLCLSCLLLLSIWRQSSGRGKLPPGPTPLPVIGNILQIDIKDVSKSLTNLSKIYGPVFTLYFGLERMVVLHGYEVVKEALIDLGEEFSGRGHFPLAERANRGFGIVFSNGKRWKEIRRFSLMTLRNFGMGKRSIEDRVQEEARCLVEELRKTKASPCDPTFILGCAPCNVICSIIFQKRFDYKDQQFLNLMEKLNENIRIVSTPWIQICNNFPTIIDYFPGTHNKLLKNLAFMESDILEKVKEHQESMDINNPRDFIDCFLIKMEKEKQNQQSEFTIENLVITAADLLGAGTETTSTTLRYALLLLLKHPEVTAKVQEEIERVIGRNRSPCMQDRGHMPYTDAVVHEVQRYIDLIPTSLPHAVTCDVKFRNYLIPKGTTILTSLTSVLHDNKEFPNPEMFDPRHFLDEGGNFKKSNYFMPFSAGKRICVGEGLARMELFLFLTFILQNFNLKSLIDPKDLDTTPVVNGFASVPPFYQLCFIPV
Sequence of CYP2D6 (P10635 whole entry): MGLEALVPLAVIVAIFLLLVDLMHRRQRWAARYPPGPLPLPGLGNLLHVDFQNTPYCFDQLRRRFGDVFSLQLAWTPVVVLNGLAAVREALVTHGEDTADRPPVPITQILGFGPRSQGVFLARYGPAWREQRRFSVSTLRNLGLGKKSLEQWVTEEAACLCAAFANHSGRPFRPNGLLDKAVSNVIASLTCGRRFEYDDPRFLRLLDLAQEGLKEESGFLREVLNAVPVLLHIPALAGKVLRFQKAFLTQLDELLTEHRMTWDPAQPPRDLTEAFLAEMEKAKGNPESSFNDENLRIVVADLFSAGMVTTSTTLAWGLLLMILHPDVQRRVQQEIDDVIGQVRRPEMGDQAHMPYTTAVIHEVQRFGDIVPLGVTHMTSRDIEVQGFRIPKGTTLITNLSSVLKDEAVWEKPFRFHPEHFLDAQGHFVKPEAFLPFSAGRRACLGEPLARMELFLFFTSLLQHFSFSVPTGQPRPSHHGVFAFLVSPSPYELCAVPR
Sequence of APP (P05067 18-770, species assumed): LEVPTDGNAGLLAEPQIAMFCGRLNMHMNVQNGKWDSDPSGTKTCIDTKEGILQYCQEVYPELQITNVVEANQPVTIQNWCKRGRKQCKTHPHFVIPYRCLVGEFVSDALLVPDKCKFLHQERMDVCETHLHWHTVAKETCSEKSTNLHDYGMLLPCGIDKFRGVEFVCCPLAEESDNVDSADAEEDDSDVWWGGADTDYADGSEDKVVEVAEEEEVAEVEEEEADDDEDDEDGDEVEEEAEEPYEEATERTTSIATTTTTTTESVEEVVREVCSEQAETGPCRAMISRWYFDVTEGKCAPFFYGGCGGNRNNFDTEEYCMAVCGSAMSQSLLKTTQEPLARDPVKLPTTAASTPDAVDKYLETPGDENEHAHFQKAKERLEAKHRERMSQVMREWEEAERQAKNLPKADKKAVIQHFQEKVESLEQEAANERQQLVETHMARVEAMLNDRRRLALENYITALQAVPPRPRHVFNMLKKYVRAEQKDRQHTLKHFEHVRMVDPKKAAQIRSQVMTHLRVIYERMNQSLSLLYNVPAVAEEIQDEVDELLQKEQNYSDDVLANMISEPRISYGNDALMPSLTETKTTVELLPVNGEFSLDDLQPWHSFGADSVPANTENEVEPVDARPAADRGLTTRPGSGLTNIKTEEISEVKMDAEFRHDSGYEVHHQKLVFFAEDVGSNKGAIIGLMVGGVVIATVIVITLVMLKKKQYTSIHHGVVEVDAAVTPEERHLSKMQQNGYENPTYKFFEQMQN
Sequence of α7 (P36544 23-502): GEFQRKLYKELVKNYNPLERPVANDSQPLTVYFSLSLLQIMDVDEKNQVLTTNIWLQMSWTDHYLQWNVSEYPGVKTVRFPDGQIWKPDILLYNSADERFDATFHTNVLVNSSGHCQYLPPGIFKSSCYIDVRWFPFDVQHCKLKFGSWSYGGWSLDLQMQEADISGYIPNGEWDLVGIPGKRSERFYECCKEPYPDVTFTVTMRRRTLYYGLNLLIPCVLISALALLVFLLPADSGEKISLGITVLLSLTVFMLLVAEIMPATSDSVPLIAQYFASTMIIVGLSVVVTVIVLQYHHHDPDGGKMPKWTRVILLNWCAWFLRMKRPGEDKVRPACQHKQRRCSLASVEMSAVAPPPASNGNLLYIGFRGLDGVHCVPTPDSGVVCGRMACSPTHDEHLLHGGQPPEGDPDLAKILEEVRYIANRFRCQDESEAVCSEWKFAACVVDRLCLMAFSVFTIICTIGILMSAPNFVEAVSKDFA

In the case of `CN1C2CC[C@H]1C[C@@H](OC(=O)c1c[nH]c3cc(F)ccc13)C2.Cl` [C41 HCl, (1R,3R,5S)-8-methyl-8-azabicyclo[3.2.1]octan-3-yl 6-fluoro-1H-indole-3-carboxylate hydrochloride], the “effect on sAPPα in SH-SY5Y cells” value in the data set with sAPPα in SH-SY5Y cells (1 μm, 24 hours) was “increase sAPPα similar to C41 (first batch) and to F03”.
As for `CN1[C@@H]2CC[C@H]1C[C@@H](OC(=O)c1c[nH]c3ccccc13)C2` [Compound F03, tropisetron, reference compound], the inhibition at 10 µM on CYP2C19 (10 μM) was 6.4%; on CYP1A2 (10 μM), 1%; on CYP2D6 (10 μM), 17.4%; at CYP3A4 (setting [3]), 0%; at CYP3A4 (setting [4]), 0.63%; on CYP2C9 (10 μM) it was 15.9%. Moreover, the inhibition at 30 µM at CYP2C19 (30 μM) was 0%; on CYP1A2 (30 μM) it was 1%; on CYP2D6 (30 μM), 38%; at CYP3A4 (setting [3]), 6.6%; at CYP3A4 (setting [4]) it was 10.5%; on CYP2C9 (30 μM), 23.3%. The “synaptic load / synaptic density in hippocampus” value in the data set on AD mouse model was “restore synaptic density; also recorded: restored synaptic load”. Further, the solubility in “Solubility in water” was found to be 100 mM (≈ 28.4 mg/mL). Moreover, the “Secondary Screen (CHO-7W) sAPPα” value in data set [1] (↑ increase) is “↑>10%”. Besides, in data set [1] (↑ increase of ratio), the “Secondary Screen (CHO-7W) sAppα/Aβ” value is on record as “↑>30%”. Also, the “Secondary Screen (CHO-7W) Aβ1-42” value in data set [1] (↓ decrease) was “↓>10%”. Moreover, in the data set with AD model mouse, the “Aβ40/42 ratio in vivo” value was “not changed”. In the data set on AD model mouse, the sAPPα in vivo result is “increased significantly”. Besides, the “sAPPα/Aβ1-42 ratio in vivo” value with AD model mouse is “not increased”. The “Target APP” value at APP fell in the range of 1 to 10 µM. The “Target 5-HT3” value at 5-HT3 is recorded as 3 nM. Besides, the Plasma binding in data set [2] is given as 70%. Also, the “Target α7” value at α7 is on record as 450 nM. Moreover, the microsomal CLint at 1 μM is 43.5 µL/min/mg in “in vitro” (setting [5]); less than 9.6 µL/min/mg in “in vitro” (setting [6]); less than 9.6 µL/min/mg in the data set “in vitro” (human, microsomes); 367 µL/min/mg in “in vitro” (setting [7]); less than 9.6 µL/min/mg in “in vitro” (setting [8]). In addition, the half-life at 1 μM in “in vitro” (dog, microsomes, NADPH-Dependent T1/2) was 53.1 min; in the data set “in vitro” (dog, microsomes, NADPH-Free T1/2), greater than 240 min; in “in vitro” (human, microsomes), greater than 240 min; in the data set “in vitro” (rat, microsomes, NADPH-Dependent T1/2), 6.3 min; in “in vitro” (rat, microsomes, NADPH-Free T1/2) it was greater than 240 min. In addition, the “NADPH-Free CLint” value in the data set “in vitro” (human, microsomes, 1 μM) is less than 9.6 µL/min/mg. Also, in the data set “in vitro” (human, microsomes, 1 μM), the “NADPH-Free T1/2” value is greater than 240 min. For the same compound, the “Primary Screen (SH-SY5Y) sAPPα” value in the data set on sAPPα in SH-SY5Y cells (↑ increase) was “↑>10%”.
`CC(C)NCC(O)COc1cccc2ccccc12` (centres unmarked) [propranolol, reference compound]: in the data set “in vitro” (human, plasma), the “Mean Plasma Fraction Bound” value worked out at 81.6% and the fraction unbound turned out to be 0.184.
For `CC(=O)CC(c1ccccc1)c1c(O)c2ccccc2oc1=O` (centres unmarked) [warfarin], the intrinsic metabolic clearance (microsomal CLint) at 1 μM was less than 9.6 µL/min/mg in the data set “in vitro” (setting [5]); less than 9.6 µL/min/mg in “in vitro” (setting [6]); less than 9.6 µL/min/mg in the data set “in vitro” (human, microsomes); less than 9.6 µL/min/mg in the data set “in vitro” (setting [7]); less than 9.6 µL/min/mg in “in vitro” (setting [8]). Also, the recovery in the data set “in vitro” (human) turned out to be 99.7%. Moreover, in “in vitro” (human, microsomes, 1 μM), the “NADPH-Free CLint” value is less than 9.6 µL/min/mg.
